# Earlier results in patent US9592310B1 (priority 2004, dated 2017).
smiles,measurement,value
[O][Cl+][O-] [Chlorine dioxide],concentration at which chlorine dioxide is stable in water and aqueous solutions,approximately 10 grams per Liter
